How the values were obtained:
Assay in all cases: relative viability (nuclei count vs DMSO), 5 days (fraction); higher = more cells survive
CUDC-101 + Pictilisib = compound: C#Cc1cccc(Nc2ncnc3cc(OC)c(OCCCCCCC(=O)NO)cc23)c1 [CUDC-101] + CS(=O)(=O)N1CCN(Cc2cc3nc(-c4cccc5[nH]ncc45)nc(N4CCOCC4)c3s2)CC1 [Pictilisib] (partner 1 µM)
In short: (§1)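 Values are medians from duplicate plates. Each reflects relative viability, defined as the nuclei count of treated wells over that of vehicle wells. Lung cancer cell lines in 1536-well plates were pin-tool dosed one day after seeding with one drug alone or with a fixed anchor-drug dose plus five library-drug doses (not always all listed) in √10 steps, then fixed, stained and imaged at 4× after 5 days.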

[1] = compound: C1=CC=C2C(=C1)N=C(S2)C(C#N)C3=NC(=NC=C3)NCCC4=CN=CC=C4 + CCNC(=O)c1noc(-c2cc(C(C)C)c(O)cc2O)c1-c1ccc(CN2CCOCC2)cc1 [Luminespib] (partner 0.01 µM)
In short: as §1

NVP-TAE684 + Pictilisib = compound: COc1cc(N2CCC(N3CCN(C)CC3)CC2)ccc1Nc1ncc(Cl)c(Nc2ccccc2S(=O)(=O)C(C)C)n1 [NVP-TAE684] + CS(=O)(=O)N1CCN(Cc2cc3nc(-c4cccc5[nH]ncc45)nc(N4CCOCC4)c3s2)CC1 [Pictilisib] (partner 1 µM)
In short: as §1

NVP-TAE684 + Alpelisib = compound: COc1cc(N2CCC(N3CCN(C)CC3)CC2)ccc1Nc1ncc(Cl)c(Nc2ccccc2S(=O)(=O)C(C)C)n1 [NVP-TAE684] + Cc1nc(NC(=O)N2CCC[C@H]2C(N)=O)sc1-c1ccnc(C(C)(C)C(F)(F)F)c1 [Alpelisib] (partner 2 µM)
In short: as §1

Row | Cell Line | relative viability (CUDC-101 + Pictilisib; first compound 0.01 µM) | relative viability (CUDC-101 + Pictilisib; first compound 0.03162 µM) | relative viability (CUDC-101 + Pictilisib; first compound 0.1 µM) | relative viability (CUDC-101 + Pictilisib; first compound 0.3162 µM) | relative viability (CUDC-101 + Pictilisib; first compound 1 µM) | relative viability ([1]; first compound 0.005 µM) | relative viability ([1]; first compound 0.05 µM) | relative viability ([1]; first compound 0.1581 µM) | relative viability ([1]; first compound 0.5 µM) | relative viability (NVP-TAE684 + Pictilisib; first compound 0.2 µM) | relative viability (NVP-TAE684 + Pictilisib; first compound 0.6325 µM) | relative viability (NVP-TAE684 + Pictilisib; first compound 2 µM) | relative viability (NVP-TAE684 + Alpelisib; first compound 0.2 µM) | relative viability (NVP-TAE684 + Alpelisib; first compound 0.6325 µM) | relative viability (NVP-TAE684 + Alpelisib; first compound 2 µM) | relative viability ([1]; first compound 0.01581 µM)
1 | NCI-H650 | 0.856 | 0.888 | 1.05 | 0.705 | 0.51 | 0.784 | 0.724 | 0.825 | 0.863 | 0.789 | 0.69 | 0.497 | 1.06 | 0.961 | 0.571 | 
2 | NCI-H661 | 0.477 | 0.422 | 0.476 | 0.487 | 0.358 | 0.902 | 0.918 | 0.926 | 0.933 | 0.449 | 0.426 | 0.429 | 0.808 |  | 0.596 | 0.917
3 | NCI-H727 | 0.412 | 0.355 | 0.283 | 0.286 | 0.27 |  | 0.294 | 0.105 | 0.329 | 0.373 | 0.388 | 0.261 | 0.591 | 0.409 | 0.275 | 0.241
4 | NCI-H838 | 0.516 | 0.508 | 0.683 | 0.628 | 0.397 | 0.327 | 0.252 | 0.367 | 0.273 | 0.408 | 0.356 | 0.235 | 1.06 | 0.97 | 0.537 | 0.368
5 | NCI-H1355 | 0.485 | 0.44 | 0.491 | 0.38 | 0.277 | 0.618 | 0.765 | 0.763 | 0.568 | 0.467 | 0.323 | 0.343 | 0.721 | 0.928 | 0.473 | 0.832
6 | NCI-H1395 | 0.59 | 0.682 | 0.564 | 0.652 | 0.581 | 0.878 | 0.822 | 0.679 | 0.819 | 0.659 | 0.61 | 0.589 | 1.2 | 1.19 | 0.739 | 0.641
7 | NCI-H1437 | 0.4 | 0.44 | 0.46 | 0.375 | 0.149 | 1.06 | 1.12 | 1.18 | 1.1 | 0.369 | 0.433 | 0.297 | 1 | 1 | 0.516 | 1.25
8 | NCI-H1563 | 0.652 | 0.607 | 0.709 | 0.667 | 0.509 | 0.534 | 0.507 | 0.553 | 0.552 | 0.597 | 0.63 | 0.495 | 0.802 | 0.828 | 0.903 | 0.52
9 | NCI-H1651 | 0.55 | 0.595 | 0.689 | 0.605 | 0.328 | 0.752 | 1.02 | 1.09 | 0.705 | 0.366 | 0.629 | 0.402 |  | 1.02 | 0.994 | 0.647
10 | NCI-H1666 | 0.395 | 0.397 | 0.322 | 0.394 | 0.271 | 0.856 | 0.986 | 1.1 | 0.833 | 0.31 | 0.348 | 0.274 |  | 0.837 | 0.524 | 0.965
11 | NCI-H1734 | 0.499 | 0.488 | 0.452 | 0.437 | 0.285 |  | 0.184 | 0.185 | 0.188 | 0.422 | 0.364 | 0.336 | 0.768 | 0.916 | 0.468 | 0.253
12 | NCI-H1755 | 0.406 | 0.409 | 0.444 | 0.41 | 0.264 | 0.458 | 0.262 | 0.576 | 0.61 | 0.5 | 0.414 | 0.408 | 0.692 | 1 | 0.771 | 0.406
13 | NCI-H1792 | 0.361 | 0.226 | 0.28 | 0.316 | 0.155 |  | 0.453 | 0.255 | 0.6 | 0.227 | 0.256 | 0.232 | 0.647 | 0.718 | 0.684 | 0.462
14 | NCI-H1793 | 0.302 | 0.43 | 0.248 | 0.375 | 0.273 | 0.16 | 0.182 | 0.158 | 0.22 | 0.426 | 0.326 | 0.519 | 0.78 | 0.637 | 0.436 | 0.141
15 | NCI-H1915 | 1 | 0.907 | 0.882 | 0.924 | 0.531 | 0.464 | 0.826 | 0.876 | 0.601 | 0.98 | 0.932 | 0.874 | 1.03 | 1.13 | 0.963 | 0.933
16 | NCI-H1944 | 0.319 | 0.311 | 0.32 | 0.324 | 0.298 | 0.739 | 0.558 | 0.636 | 0.759 | 0.334 | 0.308 | 0.3 | 0.786 | 0.797 | 0.691 | 0.854
17 | NCI-H1975 | 0.336 | 0.323 | 0.265 | 0.24 | 0.192 |  | 0.246 | 0.171 | 0.225 | 0.281 | 0.231 | 0.191 | 0.703 | 0.545 | 0.235 | 0.202
